According to ChEMBL document CHEMBL1201862, “PubChem BioAssay data set” (2004):
The source made the active and inactive calls.

How the values were obtained:
A549 = test: viability loss in A549 cells – cell-based, plate reader, cherry-pick samples, cytotoxicity control, dose response (AID 687028); type: functional; details: Homo sapiens
[1] = target: Broad substrate specificity ATP-binding cassette transporter ABCG2 (Homo sapiens, UniProt Q9UNQ0); test: blockers of JC-1 export by ABCG2 – Ig-MXP3 cells, flow cytometry, dose response (AID 1690); type: functional
Sequence of Broad substrate specificity ATP-binding cassette transporter ABCG2 (Q9UNQ0 whole entry): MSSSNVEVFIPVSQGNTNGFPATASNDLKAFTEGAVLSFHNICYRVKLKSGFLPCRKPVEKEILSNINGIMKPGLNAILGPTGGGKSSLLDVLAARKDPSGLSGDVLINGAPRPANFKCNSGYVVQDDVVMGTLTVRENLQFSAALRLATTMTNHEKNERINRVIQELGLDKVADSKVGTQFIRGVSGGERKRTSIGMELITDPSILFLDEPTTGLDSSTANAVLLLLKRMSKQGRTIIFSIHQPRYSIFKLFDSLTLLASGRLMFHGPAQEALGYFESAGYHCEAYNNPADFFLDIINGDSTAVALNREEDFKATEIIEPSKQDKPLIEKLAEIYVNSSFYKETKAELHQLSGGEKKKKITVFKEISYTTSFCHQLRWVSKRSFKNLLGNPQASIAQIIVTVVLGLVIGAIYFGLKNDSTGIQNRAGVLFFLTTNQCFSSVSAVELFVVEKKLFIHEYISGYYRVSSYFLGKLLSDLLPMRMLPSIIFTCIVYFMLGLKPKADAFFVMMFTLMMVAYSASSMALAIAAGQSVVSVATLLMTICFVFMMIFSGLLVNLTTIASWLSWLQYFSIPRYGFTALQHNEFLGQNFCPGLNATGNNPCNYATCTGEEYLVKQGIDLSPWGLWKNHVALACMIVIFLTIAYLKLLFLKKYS

Streptokinase A = target: T1, Streptokinase A (Streptococcus pyogenes serotype M1, UniProt P10520); test: viability-normalized secreted streptokinase activity reduction – plasminogen activation absorbance, OD405, dose response (AID 1914); type: functional, Streptococcus pyogenes M1 GAS;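 further: secreted streptokinase activity via plasminogen activation per viability signal from cell pellet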
T1 sequence (P10520 whole entry): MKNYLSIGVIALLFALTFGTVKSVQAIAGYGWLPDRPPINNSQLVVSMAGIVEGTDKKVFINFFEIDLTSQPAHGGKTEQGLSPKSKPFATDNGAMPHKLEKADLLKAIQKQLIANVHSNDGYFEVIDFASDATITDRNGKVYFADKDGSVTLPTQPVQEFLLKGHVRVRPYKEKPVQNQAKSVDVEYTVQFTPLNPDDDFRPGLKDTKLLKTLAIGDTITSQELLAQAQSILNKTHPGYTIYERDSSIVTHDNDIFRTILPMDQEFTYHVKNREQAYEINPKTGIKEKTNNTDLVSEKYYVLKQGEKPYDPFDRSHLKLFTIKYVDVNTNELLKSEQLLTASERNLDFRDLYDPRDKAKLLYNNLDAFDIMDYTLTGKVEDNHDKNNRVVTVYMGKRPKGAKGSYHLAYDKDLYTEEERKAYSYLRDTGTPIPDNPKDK

[2] = Trypanosoma cruzi growth suppression in host cells – NIH3T3 host cells, beta-gal luminescence, confirmation (AID 2044); type: functional, cell-based;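 further: intracellular parasites grown in NIH/3T3 mouse fibroblasts as host cells; luminescent beta-galactosidase reporter signal from transgenic T. cruzi replicating inside host cells; inhibitors lower the luminescence signal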
[3] = NIH3T3 cell viability loss – ATP luminescence, mouse fibroblasts, counter-screen, dose response (AID 2010); type: functional, cell-based;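 further: cells exposed to compound for about 90 hours before reading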
Streptococcus = test: GAS UMAA2166 growth inhibition – luminescence, BacTiterGlo, counter-screen for streptokinase expression inhibitor project, dose response (AID 1915); type: functional, organism-based;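 further: potency for reduction of bacterial viability or growth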
[4] = test system: Streptococcus sp. 'group A'; test: Streptococcus pyogenes SK(-)GAS viability under kanamycin – luminescence, BacTiterGlo, confirmation, counter-screen for streptokinase expression inhibitor project, dose response (AID 1900); type: functional, organism-based
[5] = target: T2, DNA repair protein RAD52 homolog (Homo sapiens, UniProt P43351); type: functional, biochemical
T2 sequence (P43351 whole entry): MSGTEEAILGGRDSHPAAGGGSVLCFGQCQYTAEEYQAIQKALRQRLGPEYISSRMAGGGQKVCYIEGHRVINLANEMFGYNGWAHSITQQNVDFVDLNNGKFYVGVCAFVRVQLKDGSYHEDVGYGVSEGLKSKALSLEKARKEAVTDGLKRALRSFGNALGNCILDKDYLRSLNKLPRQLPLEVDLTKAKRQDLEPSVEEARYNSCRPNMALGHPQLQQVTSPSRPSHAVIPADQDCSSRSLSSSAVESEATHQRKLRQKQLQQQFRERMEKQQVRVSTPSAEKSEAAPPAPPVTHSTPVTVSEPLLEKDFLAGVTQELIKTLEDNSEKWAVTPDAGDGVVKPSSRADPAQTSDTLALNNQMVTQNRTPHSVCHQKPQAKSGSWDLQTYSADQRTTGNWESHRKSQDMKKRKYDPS

[6] = target: T3, Short transient receptor potential channel 4 (Mus musculus, UniProt Q9QUQ5); test: block of DAMGO-driven TRPC4 calcium entry – cell-based, HEK293 TRPC4/mu-opioid, Fluo-4 calcium, dose response (AID 434942); type: functional;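 further: potency of inhibitors blocking the TRPC4 calcium response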
T3 sequence (Q9QUQ5 whole entry): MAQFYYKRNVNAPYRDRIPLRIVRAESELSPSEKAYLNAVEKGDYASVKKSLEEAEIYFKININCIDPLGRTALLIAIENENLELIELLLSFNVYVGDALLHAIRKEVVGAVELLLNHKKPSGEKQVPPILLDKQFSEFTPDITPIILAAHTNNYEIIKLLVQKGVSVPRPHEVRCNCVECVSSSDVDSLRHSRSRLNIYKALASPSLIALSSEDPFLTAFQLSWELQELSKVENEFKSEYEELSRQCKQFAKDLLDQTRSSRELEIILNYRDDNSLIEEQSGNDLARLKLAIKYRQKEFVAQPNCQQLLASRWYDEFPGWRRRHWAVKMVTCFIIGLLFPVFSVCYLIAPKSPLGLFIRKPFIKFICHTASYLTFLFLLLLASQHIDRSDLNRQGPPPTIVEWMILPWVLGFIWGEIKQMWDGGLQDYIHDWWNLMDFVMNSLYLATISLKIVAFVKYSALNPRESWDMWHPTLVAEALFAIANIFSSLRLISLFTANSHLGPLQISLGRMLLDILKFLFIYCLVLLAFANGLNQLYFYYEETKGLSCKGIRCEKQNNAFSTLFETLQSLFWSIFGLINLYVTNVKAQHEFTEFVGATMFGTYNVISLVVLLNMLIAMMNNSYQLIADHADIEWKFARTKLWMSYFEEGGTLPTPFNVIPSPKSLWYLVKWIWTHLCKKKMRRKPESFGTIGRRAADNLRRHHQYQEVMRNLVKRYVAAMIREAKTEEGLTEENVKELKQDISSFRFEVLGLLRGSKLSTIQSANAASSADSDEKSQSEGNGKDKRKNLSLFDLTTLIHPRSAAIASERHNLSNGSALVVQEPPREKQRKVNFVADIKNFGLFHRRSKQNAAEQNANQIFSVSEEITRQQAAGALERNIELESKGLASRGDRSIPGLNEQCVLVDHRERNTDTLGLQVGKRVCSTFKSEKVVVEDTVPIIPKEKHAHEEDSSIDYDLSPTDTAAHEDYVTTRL

[7] = Counterscreen for activators of the function of SWI/SNF related, matrix associated, actin dependent regulator of chromatin, subfamily a, member 2 (SMARCA2, BRM): Luminescence-based cell-based high throughput dose response assay to identify non-selective compounds using the VP16 reporter assay.; type: functional
[8] = target: SWI/SNF-related matrix-associated actin-dependent regulator of chromatin subfamily A member 2 (Homo sapiens, UniProt P51531); test: Luminescence-based cell-based high throughput dose response assay to identify activators of the function of SWI/SNF related, matrix associated, actin dependent regulator of chromatin, subfamily a, member 2 (SMARCA2, BRM).; type: functional
Sequence of SWI/SNF-related matrix-associated actin-dependent regulator of chromatin subfamily A member 2 (P51531 whole entry): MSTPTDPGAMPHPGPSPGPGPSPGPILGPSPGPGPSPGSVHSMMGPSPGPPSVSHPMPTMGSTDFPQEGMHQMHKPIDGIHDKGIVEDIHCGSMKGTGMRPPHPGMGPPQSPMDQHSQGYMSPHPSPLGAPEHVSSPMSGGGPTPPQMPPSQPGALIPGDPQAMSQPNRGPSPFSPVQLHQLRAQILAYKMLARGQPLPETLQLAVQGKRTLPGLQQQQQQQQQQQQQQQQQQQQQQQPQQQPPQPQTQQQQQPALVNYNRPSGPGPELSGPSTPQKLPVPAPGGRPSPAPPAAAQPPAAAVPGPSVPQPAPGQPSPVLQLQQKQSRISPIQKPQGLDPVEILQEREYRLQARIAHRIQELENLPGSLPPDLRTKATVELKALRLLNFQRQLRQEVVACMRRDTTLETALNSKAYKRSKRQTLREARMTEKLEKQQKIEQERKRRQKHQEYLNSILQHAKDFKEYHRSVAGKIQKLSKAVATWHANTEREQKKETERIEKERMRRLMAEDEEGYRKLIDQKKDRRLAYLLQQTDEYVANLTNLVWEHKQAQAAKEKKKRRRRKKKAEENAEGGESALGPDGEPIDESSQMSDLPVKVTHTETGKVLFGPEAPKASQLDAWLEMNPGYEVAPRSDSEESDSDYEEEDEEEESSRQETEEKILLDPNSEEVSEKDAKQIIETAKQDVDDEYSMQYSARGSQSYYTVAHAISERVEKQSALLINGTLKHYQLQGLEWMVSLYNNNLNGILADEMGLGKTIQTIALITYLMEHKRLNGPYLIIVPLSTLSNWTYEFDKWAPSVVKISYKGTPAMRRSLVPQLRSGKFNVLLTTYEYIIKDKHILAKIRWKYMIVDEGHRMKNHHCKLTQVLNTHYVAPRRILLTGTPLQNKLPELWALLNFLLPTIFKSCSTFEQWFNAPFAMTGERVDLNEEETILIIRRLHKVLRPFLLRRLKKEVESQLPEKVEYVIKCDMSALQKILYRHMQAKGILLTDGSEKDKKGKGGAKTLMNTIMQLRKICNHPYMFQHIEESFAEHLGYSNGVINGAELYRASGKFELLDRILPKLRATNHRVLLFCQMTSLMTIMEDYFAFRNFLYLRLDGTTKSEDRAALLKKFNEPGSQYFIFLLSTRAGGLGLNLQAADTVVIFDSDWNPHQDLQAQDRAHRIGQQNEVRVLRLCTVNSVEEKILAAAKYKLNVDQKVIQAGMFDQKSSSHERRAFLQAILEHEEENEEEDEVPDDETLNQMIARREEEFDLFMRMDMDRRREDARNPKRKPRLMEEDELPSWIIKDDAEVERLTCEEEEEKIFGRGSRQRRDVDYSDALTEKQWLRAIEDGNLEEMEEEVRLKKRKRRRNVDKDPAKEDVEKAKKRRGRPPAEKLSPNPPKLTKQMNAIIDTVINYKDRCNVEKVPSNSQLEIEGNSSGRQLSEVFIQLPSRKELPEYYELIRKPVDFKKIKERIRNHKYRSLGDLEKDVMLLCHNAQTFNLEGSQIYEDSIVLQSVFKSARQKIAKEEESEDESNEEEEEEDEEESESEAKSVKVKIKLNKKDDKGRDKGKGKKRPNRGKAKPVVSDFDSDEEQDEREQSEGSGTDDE

cells [9] = test: cells
[10] = target: Arf-GAP with SH3 domain, ANK repeat and PH domain-containing protein 1 (Homo sapiens, UniProt Q9ULH1); type: functional;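 further: biochemical fluorescence polarization dose–response screen measuring inhibition of ASAP1; ASAP1 GAP domain stimulating GTP hydrolysis by truncated human ARF1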
Sequence of Arf-GAP with SH3 domain, ANK repeat and PH domain-containing protein 1 (Q9ULH1 whole entry, the tested form may be a part): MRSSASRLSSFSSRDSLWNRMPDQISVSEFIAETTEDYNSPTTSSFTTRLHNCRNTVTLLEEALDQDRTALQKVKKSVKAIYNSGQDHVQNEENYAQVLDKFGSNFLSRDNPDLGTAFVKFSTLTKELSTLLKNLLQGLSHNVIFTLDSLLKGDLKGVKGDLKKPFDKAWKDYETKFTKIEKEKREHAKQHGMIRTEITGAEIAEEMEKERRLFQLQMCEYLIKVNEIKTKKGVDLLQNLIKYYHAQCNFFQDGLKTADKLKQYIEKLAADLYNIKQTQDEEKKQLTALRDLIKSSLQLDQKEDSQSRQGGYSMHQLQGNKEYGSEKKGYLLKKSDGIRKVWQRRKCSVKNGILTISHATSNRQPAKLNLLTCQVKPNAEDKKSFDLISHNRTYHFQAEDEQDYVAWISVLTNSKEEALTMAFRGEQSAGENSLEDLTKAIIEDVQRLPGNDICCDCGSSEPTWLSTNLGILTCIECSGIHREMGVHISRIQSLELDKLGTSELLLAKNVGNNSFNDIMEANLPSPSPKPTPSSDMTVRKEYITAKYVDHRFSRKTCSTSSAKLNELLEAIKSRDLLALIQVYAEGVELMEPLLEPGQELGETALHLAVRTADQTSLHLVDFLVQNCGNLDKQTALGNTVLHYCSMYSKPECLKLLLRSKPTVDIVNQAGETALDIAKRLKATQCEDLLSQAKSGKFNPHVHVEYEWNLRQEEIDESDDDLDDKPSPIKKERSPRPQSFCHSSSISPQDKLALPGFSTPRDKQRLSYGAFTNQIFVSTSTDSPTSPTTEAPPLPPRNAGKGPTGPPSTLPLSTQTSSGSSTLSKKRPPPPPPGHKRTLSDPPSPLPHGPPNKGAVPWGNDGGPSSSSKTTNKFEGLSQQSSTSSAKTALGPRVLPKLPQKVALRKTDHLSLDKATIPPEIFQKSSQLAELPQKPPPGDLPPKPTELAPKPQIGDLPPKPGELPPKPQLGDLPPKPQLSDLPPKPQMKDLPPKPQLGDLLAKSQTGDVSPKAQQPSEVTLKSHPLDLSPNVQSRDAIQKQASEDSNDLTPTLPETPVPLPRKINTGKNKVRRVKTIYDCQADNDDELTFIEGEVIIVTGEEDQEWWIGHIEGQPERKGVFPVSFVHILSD

[11] = cytotoxicity in HEK293 background cells – cell-based, dry powder, set 2, counter-screen for EBV LMP1 inhibitor project, dose response (AID 624374); type: functional
cells [12] = type: functional
[13] = off-target signal loss in HeLa-CEM21 co-culture – HeLa F-luc CTL cells, cherry-picked, counter-screen for HIV-1 Env fusion inhibitor project, dose response (AID 652040); type: functional, cell-based;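 further: potency for signal decrease marking cytotoxic or nonspecific inhibition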
[14] = viability loss in HeLa cells – cytotoxicity control for MgcRacGAP inhibitor project, dose response (AID 624300); type: functional
[15] = target: T4, Rac GTPase-activating protein 1 (Homo sapiens, UniProt Q9H0H5); test: blockers of MgcRacGAP-driven Rac1 GTP hydrolysis – biochemical, ADP Hunter fluorescence, primary and confirmatory, confirmation (AID 624330); type: functional
T4 sequence (Q9H0H5 whole entry): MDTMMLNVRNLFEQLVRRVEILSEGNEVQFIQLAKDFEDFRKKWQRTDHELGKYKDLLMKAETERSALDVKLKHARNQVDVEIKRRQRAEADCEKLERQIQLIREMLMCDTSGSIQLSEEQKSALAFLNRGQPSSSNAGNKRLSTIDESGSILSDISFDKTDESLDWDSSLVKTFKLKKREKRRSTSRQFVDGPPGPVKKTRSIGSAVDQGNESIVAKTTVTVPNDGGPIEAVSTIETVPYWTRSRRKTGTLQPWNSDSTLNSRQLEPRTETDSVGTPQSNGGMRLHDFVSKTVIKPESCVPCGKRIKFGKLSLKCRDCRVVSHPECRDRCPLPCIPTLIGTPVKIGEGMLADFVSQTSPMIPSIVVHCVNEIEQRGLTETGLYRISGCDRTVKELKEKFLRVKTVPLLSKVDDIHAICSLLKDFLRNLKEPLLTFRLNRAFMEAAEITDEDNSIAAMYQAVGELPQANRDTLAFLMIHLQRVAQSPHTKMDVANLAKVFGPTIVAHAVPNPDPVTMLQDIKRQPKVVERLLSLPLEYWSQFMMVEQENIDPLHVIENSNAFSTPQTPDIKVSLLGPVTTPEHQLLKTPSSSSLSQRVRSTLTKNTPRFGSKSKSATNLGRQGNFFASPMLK

[16] = viability loss in CEM21 cells – cell-based, CellTiter-Glo luminescence, cherry-picked, cytotoxicity control for viral fusion inhibitor project, dose response (AID 652042); type: functional;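 further: potency for signal decrease meaning cytotoxicity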
[17] = HIV-1 AD8 envelope cell-cell fusion blockers – cherry-pick, dose response (AID 652062); type: functional, cell-based;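 further: luciferase signal from cell-cell fusion driven by HIV-1 clade B AD8 Env; potency is for inhibitors of fusion seen as a drop in luminescence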
[18] = blockers of HIV-1 envelope-mediated cell-cell fusion – cherry-pick, dose response (AID 652057); type: functional, cell-based
[19] = microbe, parasite or virus in culture; type: functional; details: Mycobacterium tuberculosis
[20] = blockers of HIV-1 ZM109 envelope-driven cell-cell fusion – HeLa effector, CEM target cells, luciferase, cherry-pick, dose response (AID 652058); type: functional, cell-based;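 further: luciferase signal from HIV-1 Env mediated cell-cell fusion of effector and target cells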
[21] = THP-1 cell cytotoxicity, dose response, cytotoxicity control for non-replicating M. tuberculosis project (AID 489025); type: functional
[22] = HepG2 cell cytotoxicity, dose response, cytotoxicity control for non-replicating M. tuberculosis project (AID 489018); type: functional; details: Mycobacterium tuberculosis
[23] = target: Eukaryotic translation initiation factor 4E (Mus musculus, UniProt P63073); test: blockers of eIF4G binding by eIF4E – biochemical, TR-FRET, dose response (AID 855); type: functional;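 further: potency for disrupting eIF4E binding to eIF4GI seen as loss of FRET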
Sequence of Eukaryotic translation initiation factor 4E (P63073 whole entry): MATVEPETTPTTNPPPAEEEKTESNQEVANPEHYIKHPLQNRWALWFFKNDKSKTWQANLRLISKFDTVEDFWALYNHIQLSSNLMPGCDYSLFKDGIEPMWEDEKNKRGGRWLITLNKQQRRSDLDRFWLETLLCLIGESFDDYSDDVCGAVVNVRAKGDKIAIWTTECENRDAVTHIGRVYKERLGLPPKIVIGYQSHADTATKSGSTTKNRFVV

[24] = target: Induced myeloid leukemia cell differentiation protein Mcl-1 (Homo sapiens, UniProt Q07820); type: functional
Sequence of Induced myeloid leukemia cell differentiation protein Mcl-1 (Q07820 whole entry): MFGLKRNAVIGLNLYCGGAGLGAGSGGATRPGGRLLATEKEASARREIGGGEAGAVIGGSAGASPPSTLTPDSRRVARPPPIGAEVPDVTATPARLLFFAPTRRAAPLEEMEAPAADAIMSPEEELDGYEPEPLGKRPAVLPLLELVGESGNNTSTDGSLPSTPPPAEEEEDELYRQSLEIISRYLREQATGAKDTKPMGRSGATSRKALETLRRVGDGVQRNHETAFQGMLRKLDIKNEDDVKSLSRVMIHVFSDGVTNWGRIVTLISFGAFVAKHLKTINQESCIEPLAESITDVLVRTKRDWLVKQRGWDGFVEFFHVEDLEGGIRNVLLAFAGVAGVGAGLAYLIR

[25] = target: Matrix metalloproteinase-14 (Homo sapiens, UniProt P50281); test: Dose Response confirmation of uHTS hits for a small molecule inhibitors of MT1-MMP activation in a fluorescence assay set 2.; type: functional
H4 = test: Luminescence Cell-Based Dose Response HTS to Identify Activators of 5'UTR Stem-Loop Driven Prion Protein mRNA Translation in H4 Neuroglioblastoma Cells. [Related pubchem assays: 1829 (Project Summary), 1814 (Primary HTS)]; type: functional; details: Homo sapiens
[26] = Luminescence Cell-Based Dose Response HTS to Identify Activators of Luciferase Translation or Activity in H4 […] Cells. [Related pubchem assays: 1829 (Project Summary), 1814 (Primary HTS)]; type: functional
[27] = Luminescence Cell-Based Dose Confirmation HTS to Identify Activators of 5'UTR Stem-Loop Driven Alpha-Synuclein mRNA Translation in H4 Neuroglioblastoma Cells. [Related pubchem assays: 1829 (Project Summary), 1814 (Primary HTS)]; type: functional
Beta-lactamase [28] = target: T5, Beta-lactamase (Pseudomonas aeruginosa, UniProt Q79MP6); test: […] counterscreen for selective VIM-2 inhibitors: dose response biochemical high throughput screening assay to identify inhibitors of IMP-1 metallo-beta-lactamase.
T5 sequence (Q79MP6 whole entry): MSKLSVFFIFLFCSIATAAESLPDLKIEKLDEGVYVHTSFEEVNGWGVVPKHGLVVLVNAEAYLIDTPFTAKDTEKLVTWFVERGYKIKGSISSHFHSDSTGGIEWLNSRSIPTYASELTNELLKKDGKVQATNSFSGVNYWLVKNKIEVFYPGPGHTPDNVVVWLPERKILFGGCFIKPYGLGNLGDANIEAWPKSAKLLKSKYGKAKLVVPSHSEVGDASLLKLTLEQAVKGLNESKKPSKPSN

Trypsin = Trypsin (Sus scrofa, UniProt P00761); test: trypsin protease activity blockade – biochemical, quenched peptide fluorescence, cherry-pick, selectivity assay for Rce1 protease inhibitor project, dose response (AID 488789)
Sequence of Trypsin (P00761 whole entry): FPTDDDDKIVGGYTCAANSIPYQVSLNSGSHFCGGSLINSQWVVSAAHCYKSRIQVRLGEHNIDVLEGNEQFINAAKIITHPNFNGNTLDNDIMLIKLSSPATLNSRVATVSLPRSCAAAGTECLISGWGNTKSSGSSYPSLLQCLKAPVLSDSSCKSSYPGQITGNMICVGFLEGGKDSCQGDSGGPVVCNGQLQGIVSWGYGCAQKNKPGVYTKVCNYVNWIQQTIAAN

Beta-lactamase [29] = target: T5, Beta-lactamase; test: inhibition of IMP-1 beta-lactamase activity – biochemical, epi-absorbance, selectivity assay for VIM-2 inhibitor project, dose response (AID 1920)
Beta-lactamase [30] = target: Beta-lactamase (Salmonella choleraesuis (strain SC-B67), UniProt Q5J463); test: Epi-absorbance-based counterscreen for selective VIM-2 inhibitors: dose response biochemical high throughput screening assay to identify inhibitors of TEM-1 serine-beta-lactamase.
Sequence of Beta-lactamase (Salmonella choleraesuis (strain SC-B67), UniProt Q5J463) (Q5J463 whole entry): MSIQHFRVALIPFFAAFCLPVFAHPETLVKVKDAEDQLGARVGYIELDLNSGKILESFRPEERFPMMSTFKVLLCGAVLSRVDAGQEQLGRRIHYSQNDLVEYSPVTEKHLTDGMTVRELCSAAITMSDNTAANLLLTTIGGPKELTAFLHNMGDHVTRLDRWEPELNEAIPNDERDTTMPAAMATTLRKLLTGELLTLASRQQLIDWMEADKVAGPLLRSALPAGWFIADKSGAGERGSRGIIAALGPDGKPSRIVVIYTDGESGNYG

SMILES: COc1ccc(-c2ccc3c(c2)[C@@H]2[C@@H](CCN2C(=O)C2CCOCC2)[C@@H](CO)N3C)cc1
- AC50 (A549): 27.8 µM (active)

SMILES: COc1cccc(-c2nc(N3CC(C)CC(C)C3)c3ccccc3n2)c1O (centres undefined)
- EC50 [1]: 1.04 µM (active)
- EC50 (Streptokinase A): 6.53 µM (active)
- EC50 [2]: 1.84 µM (active)
- EC50 [3]: > 60 µM (not active)
- EC50 (Streptococcus): 82.5 µM (active)
- EC50 [4]: 5.15 µM (active)

SMILES: COc1nc(NC(=N)N)nc2ccc(C)cc12
- AC50 [5]: 9.39 µM (active)
- EC50 [6]: 5.31 µM (active)
- EC50 [7]: > 91.2 µM (inactive)
- EC50 [8]: > 3.38 µM (active)

SMILES: COc1cc2oc3ccc(C#Cc4ccccn4)cc3c(=O)c2cc1OC
- EC50 (cells [9]): 0.183 µM (active)
- EC50 [2]: < 0.1 µM (active)
- EC50 [3]: > 60 µM (not active)
- IC50 [10]: 44.1 µM (inactive)

SMILES: CN(C)c1ccc2c(c1)[C@@H]1C[C@H](CC(=O)NCc3ccc(Oc4ccccc4)cc3)O[C@@H](CO)[C@@H]1O2
- AbsAC35 [11]: 41.71 µM

SMILES: CC(NCCCOc1cccc2ccccc12)c1ccccc1 (centres undefined)
- IC50 (cells [12]): 35.9 µM (active)
- AC50 [13]: 6.96 µM (active)
- CC50 [14]: 36.2 µM (active)
- IC50 [15]: 161 µM (active)
- AC50 [16]: 17.4 µM (active)
- AC50 [17]: 19.2 µM (active)
- AC50 [18]: 2.23 µM (active)
- CC50 [19]: 23.1 µM (active)
- AC50 [20]: 14.6 µM (active)
- CC50 [21]: 13.5 µM (active)
- CC50 [22]: > 20 µM (active)

SMILES: COc1ccc2nc(N3C(=O)C(c4c(O)[nH]c5ccccc45)=NC3=S)sc2c1
- IC50 [23]: > 64 µM (inactive)
- IC50 [24]: > 54 µM (active)
- EC50 (Streptococcus): 2.41 µM (active)
- IC50 [25]: 37.6 µM (inactive)
- EC50 (H4): 101 µM (active)
- EC50 [26]: 34.5 µM (active)
- EC50 [4]: 0.744 µM (active)
- EC50 [27]: > 120 µM (not active)

SMILES: CCCCn1c(S)nnc1-c1sccc1C
- IC50 (Beta-lactamase [28]): > 59.6 µM (inactive)
- AC50 (Trypsin): 10 µM (active)
- IC50 (Beta-lactamase [29]): > 59.6 µM (inactive)
- IC50 (Beta-lactamase [30]): > 59.6 µM (inactive)
